# Active and inactive are the calls of the source. The rule behind the calls is not given here. Residues, ends and D or L forms follow the SMILES beside them.
# Key:
# P388 = experiment: Cytotoxicity against mouse P388 cells; assay type: functional, cell-based
# Bacillus subtilis = experiment: Antimicrobial activity against Bacillus subtilis; assay type: functional, organism-based
# Candida albicans = experiment: Antimicrobial activity against Candida albicans; assay type: functional, organism-based
structure (smiles),measurement,setting,value
CC(=O)N[C@@H](Cc1c[nH]c2ccccc12)C(=O)NC(C)(C)C(=O)NC(C)(C)C(=O)N[C@@H](CC(C)C)C(=O)N[C@H](C(=O)N[C@@H](CCC(N)=O)C(=O)NC(C)(C)C(=O)NC(C)(C)C(=O)NC(C)(C)C(=O)N[C@@H](CCC(N)=O)C(=O)N[C@@H](CC(C)C)C(=O)NC(C)(C)C(=O)N1CCC[C@H]1C(=O)N[C@@H](CCC(N)=O)C(=O)N[C@@H](C)CO)C(C)C [CHRYSAIBOL] (HELM PEPTIDE1{[ac].W.[Aib].[Aib].L.V.Q.[Aib].[Aib].[Aib].Q.L.[Aib].P.Q.[C[C@@H](CO)N[*:1]]}$$$$V2.0),IC50,P388,6.61 µM
same,IC50,Bacillus subtilis,1.54 µM
same,Activity,Candida albicans,inactive
